Literature values in US20240083845A1 (priority 2020, published 2024).

Legend:
[1] = system: ten further coronavirus strains; conditions: read-out: Ki values against ten further coronavirus strains; cited from earlier work
live virus = conditions: cited from earlier work

In the case of PF-00835231, the Ki [1] is listed as 0.03 to 4 nM and the “activity in cell-based live virus assays” value (live virus) is listed as about 1 µM.
